According to PMC8877094, “Antiparasitic Ovalicin Derivatives from Pseudallescheria boydii, a Mutualistic Fungus of French Guiana Termites” (Molecules, 2022):
Where two headings read alike, the source gives them in different places.

Experiments:
Type in all cases: cell-based
[1] = system: Human umbilical vein endothelial cells (HUVECs); test: Cytotoxic assay on HUVECs (CellTiter-Blue); conditions: HUVEC, read-out: HUVECs (IC50 µM)
Procedure: Human umbilical vein endothelial cells (HUVECs) were obtained from Clonetics (Lonza; Walkersville, MD, USA) and cultured according to the supplier’s instructions. Briefly, HUVECs from three to six passages were subcultured to confluence onto 0.2% gelatin-coated tissue culture flasks in endothelial cell growth medium (EGM2) containing growth factors and 2% FCS. All cell lines were maintained at 37 °C in a humidified atmosphere containing 5% CO2. Cell viability was assessed using Promega (Promega France, Charbonnière-les-Bains, France) CellTiter-BlueTM reagent according to the manufacturer’s instructions. Cells were seeded in 96-well plates (5 × 10^3 cells per well) containing […] growth medium. After 24 h of culture, the cells were supplemented with […] of test compound dissolved in DMSO (<0.1% in each preparation). After incubation for 72 h, […] resazurin was added for 2 h before recording fluorescence (λex = 560 nm, λem = 590 nm) using a Victor microtiter plate fluorimeter (PerkinElmer France, Villebon-sur-Yvette, France). IC50 values correspond to the concentration of test compound that elicited a 50% decrease in fluorescence for drug-treated cells relative to untreated cells. Experiments were performed in triplicate.

[2] = system: Plasmodium falciparum FcB1/Colombia strain; test: In vitro growth inhibition of chloroquine-resistant P. falciparum ([3H]-hypoxanthine incorporation); conditions: FCB1, Erythrocyte, 48 h
Procedure: The FcB1/Colombian strain of Plasmodium falciparum was maintained in vitro in human erythrocytes in an RPMI 1640 reaction mixture supplemented with 8% (v/v) heat-inactivated human serum at 37 °C under an atmosphere of 3% CO2, 6% O2, and 91% N2. The chloroquine-resistant strain FcB1/Colombia of Plasmodium falciparum was obtained from the National Museum Natural History collection, Paris, France (n°MNHN-CEU-224-PfFCB1). Parasites were maintained in vitro on human A+ erythrocytes in RPMI 1640 medium supplemented by 8% (v/v) heat-inactivated human serum at 37 °C under an atmosphere of 3% CO2, 6% O2, and 91% N2. Human red blood cells and serum were provided by the Etablissement Français du Sang, Ile de France (EFS, Paris, France) under the C-CPSL-UNT approval n°13/EFS/126. In vitro drug susceptibility assays were measured by [^3H]-hypoxanthine incorporation as described previously. Drug solutions were prepared in DMSO at a 10 mM concentration. Compounds were serially diluted 2-fold with 100 μL culture medium in 96-well plates. Asynchronous parasite cultures (100 μL, 1% parasitemia and 1% final hematocrit) were then added to each well and incubated for 24 h at 37 °C prior to the addition of 0.5 μCi of [^3H]-hypoxanthine (GE Healthcare, Tremblay-en-France, France, 1 to 5 Ci·mmol/mL) per well. After a further incubation of 24 h, plates were frozen and thawed. Cell lysates were then collected onto fiberglass filters and counted in a liquid scintillation spectrometer. The growth inhibition for each drug concentration was determined by comparison of the radioactivity incorporated in the treated culture with that in the control culture maintained on the same plate. The concentration causing 50% growth inhibition (IC50) was obtained from the drug concentration–response curve, and the results are expressed as the mean values ± standard deviations determined from several independent experiments.

[3] = system: Trypanosoma brucei brucei strain 93 bloodstream forms; test: In vitro inhibition of T. brucei brucei growth (AlamarBlue/resazurin); conditions: bloodstream forms strain 93, 72 h incubation + 4 h resazurin, mean ± SD of three independent experiments
Procedure: Bloodstream forms of Trypanosoma brucei brucei strain 93 were cultured in HMI9 medium supplemented with 10% FCS at 37 °C under an atmosphere of 5% CO2. In all experiments, log-phage cell cultures were harvested by centrifugation at 3000× g and immediately used. Drug assays were based on the conversion of a redox-sensitive dye (resazurin) to a fluorescent product by viable cells and were performed according to the manufacturer recommendations (AlamarBlue® Assay, Invitrogen Corporation, Carlsbad, CA, USA). Drug stock solutions were prepared in pure DMSO. […] After a 72 h incubation, resazurin solution was added to each well at with a final concentration of 45 μM. Fluorescence was measured at 530 nm excitation and 590 nm emission wavelengths after a further 4 h incubation. The percentage of inhibition of the parasite growth rate was calculated by comparing the fluorescence of parasites maintained in the presence of drug with that in the absence of drug. DMSO was used as control. […] IC50s were determined from the dose–response curves with drug concentrations ranging from 100 μM to 50 nM. The IC50 value is the mean ± the standard deviation of three independent experiments.

[4] = cell viability, 72 h incubation, CellTiter-Blue, triplicate
[5] = chloroquine-resistant FcB1/Colombia strain, human erythrocytes, 24 h + 24 h with [3H]-hypoxanthine, mean ± SD, read-out: P. falciparum (IC50 µM)

IC50 [2, 5]	IC50 ([3]; 72 h)	IC50 [3]	SMILES	IC50 [1, 4]	IC50 ([2]; read-out: P. falciparum (IC50 µM), chloroquine-resistant FcB1/Colombia strain, human erythrocytes, 24 h + 24 h with [3H]-hypoxanthine, mean ± SD)	IC50 ([1]; 72 h)
–	–	–	CO[C@@H]1C(=O)CC[C@]2(CO2)[C@@]1(O)[C@@]1(C)O[C@@H]1CC=C(C)C [Compound 1, Ovalicin]	13 ± 2 µM	< 20.6 µM	–
< 20.6 µM	< 1.1 µM	–	CCCCC/C=C\C/C=C\CCCCCCCC(=O)OC[C@@]1(O)CCC(=O)[C@@H](OC)[C@]1(O)[C@@]1(C)O[C@@H]1CC=C(C)C [Compound 2, Ovalicin linoleate]	37 ± 3 µM	–	–
> 50 µM	4.8 ± 2.7 µM	–	CCCCCCCC/C=C\CCCCCCCC(=O)OC[C@@]1(O)CCC(=O)[C@@H](OC)[C@]1(O)[C@@]1(C)O[C@@H]1CC=C(C)C [Compound 3, Ovalicin oleate]	45 ± 2 µM	–	–
< 20.6 µM	4.1 ± 2.1 µM	–	CCCCCCCCCCCCCCCCCC(=O)OC[C@@]1(O)CCC(=O)[C@@H](OC)[C@]1(O)[C@@]1(C)O[C@@H]1CC=C(C)C [Compound 4]	70 ± 1 µM	–	–
–	–	–	CO[C@@H]1[C@H](OC(=O)/C=C/C=C/C=C/C=C/C(=O)O)CC[C@]2(CO2)[C@H]1[C@@]1(C)O[C@@H]1CC=C(C)C [Fumagillin, reference compound]	–	–	0.006 ± 0.002 µM
–	–	0.011 ± 0.0017 µM	N=C(N)c1ccc(OCCCCCOc2ccc(C(=N)N)cc2)cc1 [Pentamidine, reference compound]	–	–	–
